≈ marks a conversion by molar mass, not a printed value.
Legend:
[1] = molecular target: T1, PBP3 from Acinetobacter baumannii (ATCC 19606) (Acinetobacter baumannii, UniProt A0ABX6CK25); experiment: Bocillin-FL fluorescence polarization competition binding, A. baumannii PBP3; conditions: fluorescence polarization competition binding assay using Bocillin-FL; read-out: A. baumannii PBP3 Potency
T1 sequence (A0ABX6CK25 64-610): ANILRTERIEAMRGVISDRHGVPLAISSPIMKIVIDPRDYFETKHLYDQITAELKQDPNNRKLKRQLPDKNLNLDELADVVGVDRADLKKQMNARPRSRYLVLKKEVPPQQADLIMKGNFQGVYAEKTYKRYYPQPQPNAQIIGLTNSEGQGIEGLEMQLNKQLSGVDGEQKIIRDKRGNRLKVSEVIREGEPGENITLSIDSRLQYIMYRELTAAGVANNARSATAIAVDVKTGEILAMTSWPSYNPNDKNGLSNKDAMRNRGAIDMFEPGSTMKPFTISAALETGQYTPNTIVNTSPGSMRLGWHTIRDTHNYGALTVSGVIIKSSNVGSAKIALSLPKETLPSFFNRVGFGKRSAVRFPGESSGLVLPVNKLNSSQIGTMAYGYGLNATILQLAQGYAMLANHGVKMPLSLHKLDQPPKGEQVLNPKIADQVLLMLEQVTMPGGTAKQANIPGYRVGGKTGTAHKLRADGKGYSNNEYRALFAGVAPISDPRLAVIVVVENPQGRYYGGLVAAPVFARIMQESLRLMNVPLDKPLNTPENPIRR
How it was run: (§1)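 Purified PBP was preincubated with inhibitor (E. coli PBP3 1.5 μM, 30 min; P. aeruginosa PBP3 0.75 μM, A. baumannii PBP3 0.2 μM and PBP1a 1 μM, 15 min), then Bocillin-FL (0.1 μM; 0.05 μM for PBP1a) added and FP read up to 60 min. EC50 = 50% loss of bound probe.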

[2] = molecular target: T2, PBP3 from Escherichia coli (K-12) (Escherichia coli, UniProt P0AD68); experiment: Bocillin-FL fluorescence polarization competition binding, E. coli PBP3
T2 construct: made in house
How it was run: as §1

A. baumannii CDC-0036 = experiment: microbe, parasite or virus in culture; assay type: cell-based; conditions: Acinetobacter baumannii, CDC0036, read-out: MIC, A. baumannii CDC-0036
[3] = molecular target: T3, PBP3 from Pseudomonas aeruginosa (PAO1) (Pseudomonas aeruginosa, UniProt G3XD46); experiment: Bocillin-FL fluorescence polarization competition binding, P. aeruginosa PBP3; conditions: Binding affinity to P. aeruginosa PBP3; fluorescence polarization competition binding assay using Bocillin-FL; read-out: P. aeruginosa PBP3 Potency
T3 construct: made in house
How it was run: as §1

P. aeruginosa ATCC 27853 = experiment: microbe, parasite or virus in culture; assay type: cell-based; conditions: Pseudomonas aeruginosa, ATCC27853, read-out: Minimum inhibitory concentration, P. aeruginosa ATCC 27853

T2 sequence (P0AD68 1-577): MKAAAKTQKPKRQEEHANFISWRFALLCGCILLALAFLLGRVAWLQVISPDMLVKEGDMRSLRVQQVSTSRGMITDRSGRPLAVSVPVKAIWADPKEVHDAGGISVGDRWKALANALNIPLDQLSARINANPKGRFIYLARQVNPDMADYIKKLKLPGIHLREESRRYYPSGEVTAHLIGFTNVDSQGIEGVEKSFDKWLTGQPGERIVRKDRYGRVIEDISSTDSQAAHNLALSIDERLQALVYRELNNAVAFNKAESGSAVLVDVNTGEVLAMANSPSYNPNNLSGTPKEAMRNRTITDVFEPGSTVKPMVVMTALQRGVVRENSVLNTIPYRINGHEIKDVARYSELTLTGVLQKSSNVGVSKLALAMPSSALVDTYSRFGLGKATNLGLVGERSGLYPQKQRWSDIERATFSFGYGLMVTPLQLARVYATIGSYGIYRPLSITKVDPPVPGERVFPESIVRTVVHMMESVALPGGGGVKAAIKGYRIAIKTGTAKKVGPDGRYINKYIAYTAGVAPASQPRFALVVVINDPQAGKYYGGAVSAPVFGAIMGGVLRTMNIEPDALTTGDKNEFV
T3 sequence (G3XD46 whole entry): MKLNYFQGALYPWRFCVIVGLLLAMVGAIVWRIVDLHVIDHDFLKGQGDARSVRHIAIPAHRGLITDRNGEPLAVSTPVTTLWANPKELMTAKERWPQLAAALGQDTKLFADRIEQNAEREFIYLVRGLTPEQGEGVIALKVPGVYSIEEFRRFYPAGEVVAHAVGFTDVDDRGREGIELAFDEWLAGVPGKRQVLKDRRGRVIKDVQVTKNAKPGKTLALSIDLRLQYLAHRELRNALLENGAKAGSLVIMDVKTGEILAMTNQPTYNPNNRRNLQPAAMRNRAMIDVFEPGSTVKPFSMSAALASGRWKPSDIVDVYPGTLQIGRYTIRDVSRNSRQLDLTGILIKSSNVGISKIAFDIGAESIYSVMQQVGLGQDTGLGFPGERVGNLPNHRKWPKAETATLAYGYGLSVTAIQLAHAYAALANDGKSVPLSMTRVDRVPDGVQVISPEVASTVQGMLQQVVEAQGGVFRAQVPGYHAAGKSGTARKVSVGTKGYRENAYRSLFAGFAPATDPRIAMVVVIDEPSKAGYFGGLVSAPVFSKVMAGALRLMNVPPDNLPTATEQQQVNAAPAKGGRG

## O=C(NCCCN1CCN(C(=O)NC(C(=O)N[C@H]2Cc3ccc(F)c(C(=O)O)c3OB2O)c2cc(F)c(O)c(O)c2Cl)C(=O)C1=O)c1cc(O)ccc1F (stereo partly drawn) [Example 407, (3R)-3-(2-(2-chloro-5-fluoro-3,4-dihydroxyphenyl)-2-(4-(3-(2-fluoro-5-hydroxybenzamido)propyl)-2,3-dioxopiperazine-1-carboxamido)acetamido)-7-fluoro-2-hydroxy-3,4-dihydro-2H-benzo[e][1,2]oxaborinine-8-carboxylic acid]
[1]
  IC50: < 10 µM
[2]
  EC50: < 10 µM
A. baumannii CDC-0036
  MIC: 2 to 4 µg/mL (≈ 2.57 to 5.14 µM)
[3]
  IC50: < 10 µM
P. aeruginosa ATCC 27853
  MIC: < 1 µg/mL

## O=C(NCCCN1CCN(C(=O)N[C@H](C(=O)N[C@H]2Cc3ccc(F)c(C(=O)O)c3OB2O)c2cc(F)c(O)c(O)c2Cl)C(=O)C1=O)c1cc(F)c(O)cc1F (single isomer, unassigned) [Example 472]
[1]
  IC50: < 10 µM
[2]
  EC50: 50 to 250 µM
A. baumannii CDC-0036
  MIC: 8 to 16 µg/mL (≈ 10.1 to 20.1 µM)
[3]
  IC50: 10 to 50 µM
P. aeruginosa ATCC 27853
  MIC: 2 to 4 µg/mL (≈ 2.51 to 5.03 µM)

## O=C(NCCCN1CCN(C(=O)NC(C(=O)N[C@H]2Cc3ccc(F)c(C(=O)O)c3OB2O)c2cc(F)c(O)c(O)c2Cl)C(=O)C1=O)c1ccc(O)c(Cl)c1F (stereo partly drawn) [Example 419, (3R)-3-(2-(4-(3-(3-chloro-2-fluoro-4-hydroxybenzamido)propyl)-2,3-dioxopiperazine-1-carboxamido)-2-(2-chloro-5-fluoro-3,4-dihydroxyphenyl)acetamido)-7-fluoro-2-hydroxy-3,4-dihydro-2H-benzo[e][1,2]oxaborinine-8-carboxylic acid]
[1]
  IC50: < 10 µM
[2]
  EC50: < 10 µM
A. baumannii CDC-0036
  MIC: 2 to 4 µg/mL (≈ 2.46 to 4.92 µM)
[3]
  IC50: < 10 µM
P. aeruginosa ATCC 27853
  MIC: 2 to 4 µg/mL (≈ 2.46 to 4.92 µM)

## O=C(NCCCN1CCN(C(=O)N[C@@H](C(=O)N[C@H]2Cc3ccc(F)c(C(=O)O)c3OB2O)c2cc(F)c(O)c(O)c2Cl)C(=O)C1=O)c1cc(F)c(O)c(F)c1 [Example 422, (R)-3-((R)-2-(2-chloro-5-fluoro-3,4-dihydroxyphenyl)-2-(4-(3-(3,5-difluoro-4-hydroxybenzamido)propyl)-2,3-dioxopiperazine-1-carboxamido)acetamido)-7-fluoro-2-hydroxy-3,4-dihydro-2H-benzo[e][1,2]oxaborinine-8-carboxylic acid]
[1]
  IC50: < 10 µM
[2]
  EC50: < 10 µM
A. baumannii CDC-0036
  MIC: 2 to 4 µg/mL (≈ 2.51 to 5.03 µM)
[3]
  IC50: < 10 µM
P. aeruginosa ATCC 27853
  MIC: 2 to 4 µg/mL (≈ 2.51 to 5.03 µM)

## O=C(NCCCN1CCN(C(=O)NC(C(=O)N[C@H]2Cc3ccc(F)c(C(=O)O)c3OB2O)c2cc(F)c(O)c(O)c2Cl)C(=O)C1=O)c1cc(O)ccc1Cl (stereo partly drawn) [Example 408, (3R)-3-(2-(2-chloro-5-fluoro-3,4-dihydroxyphenyl)-2-(4-(3-(2-chloro-5-hydroxybenzamido)propyl)-2,3-dioxopiperazine-1-carboxamido)acetamido)-7-fluoro-2-hydroxy-3,4-dihydro-2H-benzo[e][1,2]oxaborinine-8-carboxylic acid]
[1]
  IC50: < 10 µM
[2]
  EC50: < 10 µM
A. baumannii CDC-0036
  MIC: 8 to 16 µg/mL (≈ 10.1 to 20.1 µM)
[3]
  IC50: < 10 µM
P. aeruginosa ATCC 27853
  MIC: < 1 µg/mL

## O=C(NCCCN1CCN(C(=O)NC(C(=O)N[C@H]2Cc3ccc(F)c(C(=O)O)c3OB2O)c2cc(F)c(O)c(O)c2Cl)C(=O)C1=O)c1cc(O)cc(O)c1 (stereo partly drawn) [Example 423, (3R)-3-(2-(2-chloro-5-fluoro-3,4-dihydroxyphenyl)-2-(4-(3-(3,5-dihydroxybenzamido)propyl)-2,3-dioxopiperazine-1-carboxamido)acetamido)-7-fluoro-2-hydroxy-3,4-dihydro-2H-benzo[e][1,2]oxaborinine-8-carboxylic acid]
[1]
  IC50: < 10 µM
[2]
  EC50: < 10 µM
A. baumannii CDC-0036
  MIC: 2 to 4 µg/mL (≈ 2.58 to 5.16 µM)
[3]
  IC50: < 10 µM
P. aeruginosa ATCC 27853
  MIC: < 1 µg/mL

## O=C(NCCCN1CCN(C(=O)N[C@@H](C(=O)N[C@H]2Cc3ccc(F)c(C(=O)O)c3OB2O)c2cc(F)c(O)c(O)c2Cl)C(=O)C1=O)c1ccc(O)cc1Cl (single isomer, unassigned) [Example 471]
[1]
  IC50: < 10 µM
[2]
  EC50: < 10 µM
A. baumannii CDC-0036
  MIC: 2 to 4 µg/mL (≈ 2.52 to 5.04 µM)
[3]
  IC50: < 10 µM
P. aeruginosa ATCC 27853
  MIC: < 1 µg/mL

## O=C(NCCCN1CCN(C(=O)NC(C(=O)N[C@H]2Cc3ccc(F)c(C(=O)O)c3OB2O)c2cc(F)c(O)c(O)c2Cl)C(=O)C1=O)c1cc(O)c(F)c(O)c1F (stereo partly drawn) [Example 415, (3R)-3-(2-(2-chloro-5-fluoro-3,4-dihydroxyphenyl)-2-(4-(3-(2,4-difluoro-3,5-dihydroxybenzamido)propyl)-2,3-dioxopiperazine-1-carboxamido)acetamido)-7-fluoro-2-hydroxy-3,4-dihydro-2H-benzo[e][1,2]oxaborinine-8-carboxylic acid]
[1]
  IC50: < 10 µM
[2]
  EC50: 10 to 50 µM
A. baumannii CDC-0036
  MIC: 2 to 4 µg/mL (≈ 2.46 to 4.93 µM)
[3]
  IC50: < 10 µM
P. aeruginosa ATCC 27853
  MIC: < 1 µg/mL

## O=C(O)c1c(F)ccc2c1OB(O)[C@@H](NC(=O)C(NC(=O)N1CCN(CC3CCN(C(=O)c4cccc(O)c4)CC3)C(=O)C1=O)c1cc(F)c(O)c(O)c1Cl)C2 (stereo partly drawn) [Example 475, (3R)-3-(2-(2-chloro-5-fluoro-3,4-dihydroxyphenyl)-2-(4-((1-(3-hydroxybenzoyl)piperidin-4-yl)methyl)-2,3-dioxopiperazine-1-carboxamido)acetamido)-7-fluoro-2-hydroxy-3,4-dihydro-2H-benzo[e][1,2]oxaborinine-8-carboxylic acid]
[1]
  IC50: < 10 µM
A. baumannii CDC-0036
  MIC: 2 to 4 µg/mL (≈ 2.5 to 5 µM)
[3]
  IC50: < 10 µM
P. aeruginosa ATCC 27853
  MIC: 2 to 4 µg/mL (≈ 2.5 to 5 µM)

## O=C(O)c1c(F)ccc2c1OB(O)[C@@H](NC(=O)C(NC(=O)N1CCN(C3CCN(C(=O)Nc4cccc(O)c4F)CC3)C(=O)C1=O)c1cc(F)c(O)c(O)c1Cl)C2 (stereo partly drawn) [Example 478, (3R)-3-(2-(2-chloro-5-fluoro-3,4-dihydroxyphenyl)-2-(4-(1-((2-fluoro-3-hydroxyphenyl)carbamoyl)piperidin-4-yl)-2,3-dioxopiperazine-1-carboxamido)acetamido)-7-fluoro-2-hydroxy-3,4-dihydro-2H-benzo[e][1,2]oxaborinine-8-carboxylic acid]
[1]
  IC50: < 10 µM
A. baumannii CDC-0036
  MIC: 2 to 4 µg/mL (≈ 2.44 to 4.88 µM)
[3]
  IC50: < 10 µM
P. aeruginosa ATCC 27853
  MIC: 2 to 4 µg/mL (≈ 2.44 to 4.88 µM)

## O=C(O)c1c(F)ccc2c1OB(O)[C@@H](NC(=O)[C@H](NC(=O)N1CCN(C3CCN(C(=O)Nc4ccc(O)cc4)CC3)C1=O)c1cc(F)c(O)c(O)c1Cl)C2 (single isomer, unassigned) [Example 468]
[1]
  IC50: < 10 µM
A. baumannii CDC-0036
  MIC: < 1 µg/mL
[3]
  IC50: < 10 µM
P. aeruginosa ATCC 27853
  MIC: < 1 µg/mL

## O=C(O)c1c(F)ccc2c1OB(O)[C@@H](NC(=O)C(NC(=O)N1CCN(C3CCN(C(=O)c4ccc(O)cc4O)CC3)C(=O)C1=O)c1cc(F)c(O)c(O)c1Cl)C2 (stereo partly drawn) [Example 476, (3R)-3-(2-(2-chloro-5-fluoro-3,4-dihydroxyphenyl)-2-(4-(1-(2,4-dihydroxybenzoyl)piperidin-4-yl)-2,3-dioxopiperazine-1-carboxamido)acetamido)-7-fluoro-2-hydroxy-3,4-dihydro-2H-benzo[e][1,2]oxaborinine-8-carboxylic acid]
[1]
  IC50: < 10 µM
A. baumannii CDC-0036
  MIC: < 1 µg/mL
[3]
  IC50: < 10 µM
P. aeruginosa ATCC 27853
  MIC: < 1 µg/mL

## O=C(O)c1c(F)ccc2c1OB(O)[C@@H](NC(=O)C(NC(=O)N1CCN(CC3CCN(C(=O)Nc4cccc(O)c4)CC3)C(=O)C1=O)c1cc(F)c(O)c(O)c1Cl)C2 (stereo partly drawn) [Example 477, (3R)-3-(2-(2-chloro-5-fluoro-3,4-dihydroxyphenyl)-2-(4-((1-((3-hydroxyphenyl)carbamoyl)piperidin-4-yl)methyl)-2,3-dioxopiperazine-1-carboxamido)acetamido)-7-fluoro-2-hydroxy-3,4-dihydro-2H-benzo[e][1,2]oxaborinine-8-carboxylic acid]
[1]
  IC50: < 10 µM
A. baumannii CDC-0036
  MIC: 2 to 4 µg/mL (≈ 2.45 to 4.91 µM)
[3]
  IC50: < 10 µM
P. aeruginosa ATCC 27853
  MIC: < 1 µg/mL

## O=C(O)c1c(F)ccc2c1OB(O)[C@@H](NC(=O)[C@@H](NC(=O)N1CCN(C3CCN(C(=O)Nc4ccc(O)cc4)CC3)C1=O)c1cc(F)c(O)c(O)c1Cl)C2 (single isomer, unassigned) [Example 467]
[1]
  IC50: < 10 µM
A. baumannii CDC-0036
  MIC: < 1 µg/mL
[3]
  IC50: < 10 µM
P. aeruginosa ATCC 27853
  MIC: < 1 µg/mL

## O=C(O)c1c(F)ccc2c1OB(O)[C@@H](NC(=O)C(NC(=O)N1CCN(C3CCN(C(=O)Cc4cccc(O)c4)CC3)C(=O)C1=O)c1cc(F)c(O)c(O)c1Cl)C2 (stereo partly drawn) [Example 474, (3R)-3-(2-(2-chloro-5-fluoro-3,4-dihydroxyphenyl)-2-(4-(1-(2-(3-hydroxyphenyl)acetyl)piperidin-4-yl)-2,3-dioxopiperazine-1-carboxamido)acetamido)-7-fluoro-2-hydroxy-3,4-dihydro-2H-benzo[e][1,2]oxaborinine-8-carboxylic acid]
[1]
  IC50: < 10 µM
A. baumannii CDC-0036
  MIC: < 1 µg/mL
[3]
  IC50: < 10 µM
P. aeruginosa ATCC 27853
  MIC: 2 to 4 µg/mL (≈ 2.5 to 5 µM)

From patent publication US20240270762A1, “PENICILLIN-BINDING PROTEIN INHIBITORS” (priority 2021, published 2024)
